Laboratory results from patent US8461328B2, “Tricyclic heterocyclic compounds, compositions and methods of use thereof” (Genentech, Inc., priority 2010, dated 2013).

Columns and labels:
Type in all cases: biochemical
JAK2 = biological target: T1, JAK2 (Homo sapiens, UniProt O60674); experiment: JAK2 inhibition (Table 4); settings: read-out: JAK2 Ki
T1 construct: made in house; host or cells: SF9 insect cells (baculovirus)

JAK3 = biological target: T2, JAK3 (Homo sapiens, UniProt P52333); experiment: JAK3 inhibition (Table 4); settings: read-out: JAK3 Ki
T2 construct: made in house; host or cells: SF9 insect cells (baculovirus)
T2 sequence (P52333 783-1124): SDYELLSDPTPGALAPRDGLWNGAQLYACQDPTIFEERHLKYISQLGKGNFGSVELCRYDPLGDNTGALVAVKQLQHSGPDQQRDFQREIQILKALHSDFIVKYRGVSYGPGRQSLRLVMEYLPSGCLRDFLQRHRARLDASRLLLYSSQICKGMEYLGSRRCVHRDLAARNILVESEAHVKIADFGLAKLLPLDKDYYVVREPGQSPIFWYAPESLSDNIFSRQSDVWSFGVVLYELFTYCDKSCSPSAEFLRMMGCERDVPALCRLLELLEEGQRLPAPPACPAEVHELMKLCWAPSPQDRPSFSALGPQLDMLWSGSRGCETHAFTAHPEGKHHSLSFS

JAK1 = biological target: T3, JAK1 (Homo sapiens, UniProt P23458); experiment: JAK1 inhibition (Table 4); settings: read-out: JAK1 Ki
T3 construct: made in house; host or cells: SF9 insect cells (baculovirus)
T3 sequence (P23458 852-1154): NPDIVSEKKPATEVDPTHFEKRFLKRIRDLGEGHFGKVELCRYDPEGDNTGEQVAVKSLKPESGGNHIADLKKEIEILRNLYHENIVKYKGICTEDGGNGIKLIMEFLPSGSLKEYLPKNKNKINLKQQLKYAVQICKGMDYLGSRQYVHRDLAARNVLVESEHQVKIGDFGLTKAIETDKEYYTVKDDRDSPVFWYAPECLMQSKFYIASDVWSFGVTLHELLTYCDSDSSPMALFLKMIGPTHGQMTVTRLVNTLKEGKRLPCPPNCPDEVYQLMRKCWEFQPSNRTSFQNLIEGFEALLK

TYK2 = biological target: T4, TYK2 (Homo sapiens, UniProt P29597); experiment: TYK2 inhibition (Table 4)
T4 construct: made in house; host or cells: SF9 insect cells (baculovirus)
T4 sequence (P29597 873-1187): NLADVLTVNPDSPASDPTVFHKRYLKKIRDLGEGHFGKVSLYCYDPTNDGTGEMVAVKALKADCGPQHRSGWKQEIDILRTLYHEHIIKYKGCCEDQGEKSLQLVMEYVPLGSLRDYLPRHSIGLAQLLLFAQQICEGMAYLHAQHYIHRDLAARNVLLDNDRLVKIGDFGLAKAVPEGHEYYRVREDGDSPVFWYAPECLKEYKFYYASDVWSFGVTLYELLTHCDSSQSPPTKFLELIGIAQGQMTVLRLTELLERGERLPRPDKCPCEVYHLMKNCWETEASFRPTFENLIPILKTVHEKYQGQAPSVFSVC

T1 sequence (O60674 812-1132): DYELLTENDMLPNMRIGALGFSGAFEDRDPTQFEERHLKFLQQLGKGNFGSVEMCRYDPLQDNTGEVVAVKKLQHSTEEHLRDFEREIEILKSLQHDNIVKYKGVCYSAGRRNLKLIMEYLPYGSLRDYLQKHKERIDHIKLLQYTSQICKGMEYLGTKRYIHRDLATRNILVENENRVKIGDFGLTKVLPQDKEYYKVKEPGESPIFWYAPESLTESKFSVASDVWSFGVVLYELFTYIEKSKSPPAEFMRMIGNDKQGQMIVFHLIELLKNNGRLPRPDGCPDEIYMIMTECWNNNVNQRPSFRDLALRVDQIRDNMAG

Row | SMILES | Ki (JAK2) | Ki (JAK3) | Ki (JAK1) | Ki (TYK2)
1 | O=C(Cc1nc2cnc3[nH]ccc3c2n1C1CCCOC1)NCC(F)F (racemic) [Example 973, N-(2,2-Difluoro-ethyl)-2-[1-(tetrahydro-pyran-3-yl)-1,6-dihydro-1,3,5,6-tetraaza-as-indacen-2-yl]-acetamide] | 152 nM | 130 nM | 23 nM | 215 nM
2 | O=C(Cc1nc2cnc3[nH]ccc3c2n1C1CCCOC1)NC1CCCC1 (racemic) [Example 974, N-Cyclopentyl-2-[1-(tetrahydro-pyran-3-yl)-1,6-dihydro-1,3,5,6-tetraaza-as-indacen-2-yl]-acetamide] | 110 nM | 74.6 nM | 25.6 nM | 194 nM
3 | O=C(Cc1nc2cnc3[nH]ccc3c2n1C1CCCOC1)NCCn1ccnc1 (racemic) [Example 975, N-(2-Imidazol-1-yl-ethyl)-2-[1-(tetrahydro-pyran-3-yl)-1,6-dihydro-1,3,5,6-tetraaza-as-indacen-2-yl]-acetamide] | 206 nM | 211 nM | 44.1 nM | 406 nM
4 | O=C(Cc1nc2cnc3[nH]ccc3c2n1C1CCCOC1)N1CCN(CCO)CC1 (racemic) [Example 976, 1-[4-(2-Hydroxy-ethyl)-piperazin-1-yl]-2-[1-(tetrahydro-pyran-3-yl)-1,6-dihydro-1,3,5,6-tetraaza-as-indacen-2-yl]-ethanone] | 405 nM | 208 nM | 32.1 nM | 299 nM
5 | CC(=O)N1CCN(C(=O)Cc2nc3cnc4[nH]ccc4c3n2C2CCCOC2)CC1 (racemic) [Example 977, 1-(4-Acetyl-piperazin-1-yl)-2-[1-(tetrahydro-pyran-3-yl)-1,6-dihydro-1,3,5,6-tetraaza-as-indacen-2-yl]-ethanone] | 363 nM | 195 nM | 28.2 nM | 210 nM
6 | O=C(Cc1nc2cnc3[nH]ccc3c2n1C1CCCOC1)N1CCC(F)(F)CC1 (racemic) [Example 978, 1-(4,4-Difluoro-piperidin-1-yl)-2-[1-(tetrahydro-pyran-3-yl)-1,6-dihydro-1,3,5,6-tetraaza-as-indacen-2-yl]-ethanone] | 305 nM | 124 nM | 17.4 nM | 157 nM
7 | O=C(Cc1nc2cnc3[nH]ccc3c2n1C1CCCOC1)N1CCS(=O)(=O)CC1 (racemic) [Example 979, 1-(1,1-Dioxo-1$1%6&-thiomorpholin-4-yl)-2-[1-(tetrahydro-pyran-3-yl)-1,6-dihydro-1,3,5,6-tetraaza-as-indacen-2-yl]-ethanone] | 238 nM | 127 nM | 15.5 nM | 113 nM
8 | O=C(Cc1nc2cnc3[nH]ccc3c2n1C1CCCOC1)N1CCCOCC1 (racemic) [Example 980, 1-[1,4]Oxazepan-4-yl-2-[1-(tetrahydro-pyran-3-yl)-1,6-dihydro-1,3,5,6-tetraaza-as-indacen-2-yl]-ethanone] | 506 nM | 300 nM | 78.8 nM | 109 nM
9 | CN1CCC(NC(=O)Cc2nc3cnc4[nH]ccc4c3n2C2CCCOC2)CC1 (racemic) [Example 981, N-(1-Methyl-piperidin-4-yl)-2-[1-(tetrahydro-pyran-3-yl)-1,6-dihydro-1,3,5,6-tetraaza-as-indacen-2-yl]-acetamide] | 177 nM | 162 nM | 66 nM | 376 nM
10 | O=C(Cc1nc2cnc3[nH]ccc3c2n1C1CCCOC1)N1CCCC(O)C1 (racemic) [Example 982, 1-(3-Hydroxy-piperidin-1-yl)-2-[1-(tetrahydro-pyran-3-yl)-1,6-dihydro-1,3,5,6-tetraaza-as-indacen-2-yl]-ethanone] | 307 nM | 159 nM | 34.3 nM | 273 nM
11 | O=C(Cc1nc2cnc3[nH]ccc3c2n1C1CCCOC1)NC1CCOCC1 (racemic) [Example 983, N-(Tetrahydro-pyran-4-yl)-2-[1-(tetrahydro-pyran-3-yl)-1,6-dihydro-1,3,5,6-tetraaza-as-indacen-2-yl]-acetamide] | 157 nM | 100 nM | 37.6 nM | 300 nM
12 | O=C(Cc1nc2cnc3[nH]ccc3c2n1C1CCCOC1)N1CCC(CO)CC1 (racemic) [Example 984, 1-(4-Hydroxymethyl-piperidin-1-yl)-2-[1-(tetrahydro-pyran-3-yl)-1,6-dihydro-1,3,5,6-tetraaza-as-indacen-2-yl]-ethanone] | 295 nM | 173 nM | 17.7 nM | 253 nM
13 | O=C(Cc1nc2cnc3[nH]ccc3c2n1C1CCCOC1)N1CCSCC1 (racemic) [Example 985, 2-[1-(Tetrahydro-pyran-3-yl)-1,6-dihydro-1,3,5,6-tetraaza-as-indacen-2-yl]-1-thiomorpholin-4-yl-ethanone] | 366 nM | 146 nM | 19.6 nM | 175 nM
14 | O=C(Cc1nc2cnc3[nH]ccc3c2n1C1CCCOC1)N1CCC(O)CC1 (racemic) [Example 986, 1-(4-Hydroxy-piperidin-1-yl)-2-[1-(tetrahydro-pyran-3-yl)-1,6-dihydro-1,3,5,6-tetraaza-as-indacen-2-yl]-ethanone] | 314 nM | 171 nM | 17.5 nM | 187 nM
15 | Cc1nc2cnc3[nH]ccc3c2n1C1CCCCNC1 (racemic) [Example 987, 1-Azepan-3-yl-2-methyl-1,6-dihydro-1,3,5,6-tetraaza-as-indacene] | 208 nM | 643 nM | 39.7 nM | 267 nM
16 | N#CCC(=O)N1CCCCC(n2cnc3cnc4[nH]ccc4c32)C1 (racemic) [Example 988, 3-Oxo-3-[3-(6H-1,3,5,6-tetraaza-as-indacen-1-yl)-azepan-1-yl]-propionitrile] | 6.23 nM | 9.33 nM | 4.19 nM | 29.1 nM
17 | N#CCCN1CCCCC(n2cnc3cnc4[nH]ccc4c32)C1 (racemic) [Example 989, 3-[3-(6H-1,3,5,6-Tetraaza-as-indacen-1-yl)-azepan-1-yl]-propionitrile] | 14.6 nM | 39.4 nM | 10.9 nM | 42 nM
18 | Cc1nc2cnc3[nH]ccc3c2n1C1CCc2nc[nH]c2C1 (racemic) [Example 990, 2-Methyl-1-(4,5,6,7-tetrahydro-3H-benzoimidazol-5-yl)-1,6-dihydro-1,3,5,6-tetraaza-as-indacene] | 204 nM | 91.9 nM | 84.6 nM | 325 nM
19 | N#CCCn1cc2c(n1)CCC(n1cnc3cnc4[nH]ccc4c31)C2 (racemic) [Example 991, 3-[5-(6H-1,3,5,6-Tetraaza-as-indacen-1-yl)-4,5,6,7-tetrahydro-indazol-2-yl]-propionitrile] | 11.7 nM | 109 nM | 9.26 nM | 58.6 nM
20 | C[C@@H](O)c1nc2cnc3[nH]ccc3c2n1[C@H]1CC[C@@H](N2CCC(C#N)CC2)CC1 (relative stereo) [Example 611, Cis 1-{4-[2-(1-hydroxy-ethyl)-6H-1,2,3,5,6-tetraaza-as-indacen-1-yl]-cyclohexyl}-piperidine-4-carbonitrile] | 142 nM | 139 nM | 6.89 nM | 49.6 nM
21 | Cc1nc2cnc3[nH]ccc3c2n1[C@@H]1C[C@@H]2CC[C@H]1O2 (relative stereo) [Example 684, Endo-2-Methyl-1-(7-oxa-bicyclo[2.2.1]hept-2-yl)-1,6-dihydro-1,2,3,5,6-tetraaza-as-indacene] | 21.6 nM | 11.5 nM | 7.57 nM | 37.8 nM
22 | c1cc2c(ncc3ncn(C4CCCCNC4)c32)[nH]1 (single isomer, unassigned) [Example 110, 1-Azepan-3-yl-1,6-dihydro-1,2,3,5,6-tetraaza-as-indacene] | 292 nM | 704 nM | 154 nM | 647 nM
23 | c1cc2c(ncc3ncn(C4CCCCNC4)c32)[nH]1 (single isomer, unassigned) [Example 110a, 1-Azepan-3-yl-1,6-dihydro-1,2,3,5,6-tetraaza-as-indacene] | 81.8 nM | 194 nM | 13.6 nM | 106 nM
24 | Cc1nc2cnc3[nH]ccc3c2n1C1CCC2CC(=O)NC2C1 (single isomer, unassigned) [Example 112, 6-(2-Methyl-6H-1,2,3,5,6-tetraaza-as-indacen-1-yl)-octahydro-indol-2-one] | 10.8 nM | 63.4 nM | 4.09 nM | 17.5 nM
25 | Cc1nc2cnc3[nH]ccc3c2n1C1CCC2CC(=O)NC2C1 (single isomer, unassigned) [Example 112a, 6-(2-Methyl-6H-1,2,3,5,6-tetraaza-as-indacen-1-yl)-octahydro-indol-2-one] | 58.3 nM | 300 nM | 64.4 nM | 630 nM
26 | CCC(COC)n1c(C(C)O)nc2cnc3[nH]ccc3c21 (single isomer, unassigned) [Example 182, 1-[1-(1-Methoxymethyl-propyl)-1,6-dihydro-1,2,3,5,6-tetraaza-as-indacen-2-yl]-ethanol] | 435 nM | 154 nM | 167 nM | 955 nM
27 | CCC(COC)n1c(C(C)O)nc2cnc3[nH]ccc3c21 (single isomer, unassigned) [Example 182a, 1-[1-(1-Methoxymethyl-propyl)-1,6-dihydro-1,2,3,5,6-tetraaza-as-indacen-2-yl]-ethanol] | 888 nM | 351 nM | 291 nM | 3180 nM
